The text below walks through data of patent US20260028326A1, “COMPOUND BASED ON ISOINDOLINE-SUBSTITUTED GLUTARIMIDE BACKBONE AND USE THEREOF” (GLUETACS THERAPEUTICS (SHANGHAI) CO., LTD., priority 2022, published 2026).

One assay has as its system CCRF-CEM cells. Put plainly: Tumor cell proliferation IC50 (CCK-8), CCRF-CEM.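 Further: cell viability measured with CCK-8 reagent after compound treatment, IC50 taken from plotted growth inhibition curves.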 Particulars: Homo sapiens, 96 h, read-out: IC50 for inhibiting the proliferation of tumor cells, CCRF-CEM.
The subject of another assay is MM.1S cells. Put plainly: Tumor cell proliferation IC50 (CCK-8), MM.1S.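 Further: viability of cultured cells read by CCK-8 reagent after compound exposure, growth inhibition curves fitted to derive IC50.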 Particulars: Homo sapiens, MM1.S, 72 h, read-out: IC50 for inhibiting the proliferation of tumor cells, MM.1S.
In the next assay the target is GSPT1 protein (Homo sapiens (Human), UniProt P15170+Q96SW2). Description: Western-blot assay of substrate protein degradation in hPBMC, GSPT1. The assay is classed as cell-based. The following applies: for residual substrate protein level, GSPT1: hPBMC cells, compound 500 nM, 24 hours, Western blot. In general terms: Immunoblotting shows a protein as a band on a membrane.
Chain of GSPT1 protein (P15170 whole entry): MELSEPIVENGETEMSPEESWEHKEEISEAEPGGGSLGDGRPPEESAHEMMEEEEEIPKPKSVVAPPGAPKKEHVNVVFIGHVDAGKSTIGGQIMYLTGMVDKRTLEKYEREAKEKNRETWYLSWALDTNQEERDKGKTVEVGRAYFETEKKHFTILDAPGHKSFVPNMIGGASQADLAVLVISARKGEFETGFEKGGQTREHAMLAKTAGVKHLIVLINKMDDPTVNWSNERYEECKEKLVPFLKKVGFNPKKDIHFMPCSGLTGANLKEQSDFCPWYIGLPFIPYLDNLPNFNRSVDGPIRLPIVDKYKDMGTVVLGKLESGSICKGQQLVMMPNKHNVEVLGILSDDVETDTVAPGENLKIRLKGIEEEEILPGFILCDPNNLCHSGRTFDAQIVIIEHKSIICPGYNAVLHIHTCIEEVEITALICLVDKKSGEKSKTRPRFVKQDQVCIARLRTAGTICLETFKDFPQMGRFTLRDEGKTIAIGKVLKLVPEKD
Chain of GSPT1 protein (Q96SW2 whole entry): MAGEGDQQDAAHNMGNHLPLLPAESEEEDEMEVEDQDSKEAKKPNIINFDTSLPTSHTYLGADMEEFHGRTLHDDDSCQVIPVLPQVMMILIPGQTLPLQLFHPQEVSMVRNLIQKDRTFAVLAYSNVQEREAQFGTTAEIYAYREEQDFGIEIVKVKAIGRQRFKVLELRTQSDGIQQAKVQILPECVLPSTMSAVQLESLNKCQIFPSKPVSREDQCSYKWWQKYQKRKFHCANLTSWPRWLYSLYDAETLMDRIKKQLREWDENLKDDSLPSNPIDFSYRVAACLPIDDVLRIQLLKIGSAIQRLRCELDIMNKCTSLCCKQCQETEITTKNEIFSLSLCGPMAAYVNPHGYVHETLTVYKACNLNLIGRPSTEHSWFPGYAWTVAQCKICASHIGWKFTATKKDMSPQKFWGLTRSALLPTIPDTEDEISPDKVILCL
Chain of GSPT1 protein (Q16531 whole entry partner): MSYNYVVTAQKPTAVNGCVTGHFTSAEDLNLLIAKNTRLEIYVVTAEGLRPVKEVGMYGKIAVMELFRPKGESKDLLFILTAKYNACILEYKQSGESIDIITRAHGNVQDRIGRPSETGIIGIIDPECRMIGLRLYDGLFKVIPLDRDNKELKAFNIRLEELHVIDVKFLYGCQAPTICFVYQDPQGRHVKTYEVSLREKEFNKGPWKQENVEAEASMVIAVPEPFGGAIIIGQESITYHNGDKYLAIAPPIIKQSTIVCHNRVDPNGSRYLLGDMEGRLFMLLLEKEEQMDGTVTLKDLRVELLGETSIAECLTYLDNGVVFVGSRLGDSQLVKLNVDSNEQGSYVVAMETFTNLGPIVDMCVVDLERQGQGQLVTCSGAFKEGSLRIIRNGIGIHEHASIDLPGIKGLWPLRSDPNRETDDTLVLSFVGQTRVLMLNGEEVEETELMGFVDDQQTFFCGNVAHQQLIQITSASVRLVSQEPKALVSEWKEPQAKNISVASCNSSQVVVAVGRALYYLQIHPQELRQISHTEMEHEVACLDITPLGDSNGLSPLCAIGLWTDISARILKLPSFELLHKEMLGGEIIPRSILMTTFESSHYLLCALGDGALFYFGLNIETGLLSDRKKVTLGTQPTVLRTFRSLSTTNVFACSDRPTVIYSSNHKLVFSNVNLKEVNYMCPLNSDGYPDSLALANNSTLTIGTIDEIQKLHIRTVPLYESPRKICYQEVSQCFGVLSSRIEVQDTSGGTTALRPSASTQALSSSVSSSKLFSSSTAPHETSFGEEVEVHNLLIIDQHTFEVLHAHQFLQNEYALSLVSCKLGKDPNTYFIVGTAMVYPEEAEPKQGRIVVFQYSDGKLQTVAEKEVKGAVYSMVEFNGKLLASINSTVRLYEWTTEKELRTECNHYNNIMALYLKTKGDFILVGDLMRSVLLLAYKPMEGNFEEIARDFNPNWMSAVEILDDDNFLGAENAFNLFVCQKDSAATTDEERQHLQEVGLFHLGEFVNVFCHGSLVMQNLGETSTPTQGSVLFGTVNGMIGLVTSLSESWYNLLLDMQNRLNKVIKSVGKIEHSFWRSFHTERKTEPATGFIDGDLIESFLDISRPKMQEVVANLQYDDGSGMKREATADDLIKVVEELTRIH

The next assay deals with IKZF3 protein (Homo sapiens (Human), UniProt Q96SW2+Q9UKT9). Description: Western-blot assay of substrate protein degradation in hPBMC, IKZF3. It counts as cell-based. The following applies: for residual substrate protein level, IKZF3: hPBMC cells, compound 500 nM, 24 hours, Western blot.
Chain of IKZF3 protein (Q9UKT9 whole entry): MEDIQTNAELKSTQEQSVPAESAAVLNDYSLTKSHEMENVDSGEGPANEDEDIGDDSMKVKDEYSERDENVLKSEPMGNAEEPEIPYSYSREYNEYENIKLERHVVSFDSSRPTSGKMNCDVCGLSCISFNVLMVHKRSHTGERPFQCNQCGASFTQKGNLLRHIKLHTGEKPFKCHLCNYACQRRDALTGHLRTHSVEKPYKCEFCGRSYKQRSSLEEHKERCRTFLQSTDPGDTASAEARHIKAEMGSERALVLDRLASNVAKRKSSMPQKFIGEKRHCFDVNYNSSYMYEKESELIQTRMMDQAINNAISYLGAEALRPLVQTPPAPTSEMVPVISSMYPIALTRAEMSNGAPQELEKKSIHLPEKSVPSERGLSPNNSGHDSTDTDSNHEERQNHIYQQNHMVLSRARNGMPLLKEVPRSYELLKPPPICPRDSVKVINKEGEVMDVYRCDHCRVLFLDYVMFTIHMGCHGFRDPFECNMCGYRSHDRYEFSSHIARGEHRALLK
Chain of IKZF3 protein (Q96SW2 whole entry): as the sequence (Q96SW2 whole entry) above
Chain of IKZF3 protein (Q16531 whole entry partner): as the sequence (Q16531 whole entry partner) above
Another assay addresses IKZF1 protein (Homo sapiens (Human), UniProt Q13422+Q96SW2). Description: Western-blot assay of substrate protein degradation in hPBMC, IKZF1. It counts as cell-based. The following applies: for residual substrate protein level, IKZF1: hPBMC cells, compound 500 nM, 24 hours, Western blot.
In assay [1] the target is human Cereblon WT GST-tagged protein (Homo sapiens (Human), UniProt Q96SW2). Put plainly: CRBN-binding affinity, HTRF (CEREBLON BINDING kit). A digest of the protocol:
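GST-tagged human WT Cereblon incubated with compound, then Thalidomide-Re tracer and anti-GST Eu antibody added. Displacement read by HTRF, reported as CRBN binding inhibition rate against blank control wells without protein.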
For orientation: TR-FRET usually uses a lanthanide donor and a delayed reading to cut background.

The next assay has as its system Mino cells. Description: Tumor cell proliferation IC50 (CCK-8), Mino.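 Further: cell viability assessed with CCK-8 reagent after compound exposure, IC50 derived from plotted growth inhibition curves.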 The following applies: Homo sapiens, 72 h, read-out: IC50 for inhibiting the proliferation of tumor cells, Mino.
Where [2] appears, read: hPBMC, 24 h, serially diluted 0.03-1000 nM.

The structures appear in SMILES notation.

Chain of human Cereblon WT GST-tagged protein (Q96SW2 whole entry): as the sequence (Q96SW2 whole entry) above
Chain of IKZF1 protein (Q13422 whole entry): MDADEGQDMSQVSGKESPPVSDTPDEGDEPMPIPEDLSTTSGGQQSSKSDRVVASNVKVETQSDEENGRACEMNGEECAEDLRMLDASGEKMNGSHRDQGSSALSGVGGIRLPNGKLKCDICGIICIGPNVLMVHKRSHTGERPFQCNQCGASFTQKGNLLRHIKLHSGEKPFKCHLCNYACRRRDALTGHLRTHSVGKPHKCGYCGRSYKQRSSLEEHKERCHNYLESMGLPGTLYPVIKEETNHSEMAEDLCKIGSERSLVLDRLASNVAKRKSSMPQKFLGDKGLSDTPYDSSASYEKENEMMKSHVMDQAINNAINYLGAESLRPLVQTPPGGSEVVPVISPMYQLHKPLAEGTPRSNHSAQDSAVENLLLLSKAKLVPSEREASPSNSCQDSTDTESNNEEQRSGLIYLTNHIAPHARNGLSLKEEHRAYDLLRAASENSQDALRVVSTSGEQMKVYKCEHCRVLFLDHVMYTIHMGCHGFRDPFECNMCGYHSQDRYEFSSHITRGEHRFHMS
Chain of IKZF1 protein (Q96SW2 whole entry): as the sequence (Q96SW2 whole entry) above
Chain of IKZF1 protein (Q16531 whole entry partner): as the sequence (Q16531 whole entry partner) above
Procedure for CCRF-CEM cells: (§1) The tumor cells used herein were cultured in a cell culture medium listed in table A at 37° C. in an incubator with 5% CO2.
(§2) After the cells were treated with the compounds of the present disclosure for a period of time, the cell viability detection reagent was added to the culture medium for cell viability assessment according to the instructions provided with the CCK-8 kit. […] The growth inhibition of the compounds of the present disclosure on cells was plotted by Prism Graphpad software, and the IC50 values of the compounds of the present disclosure were calculated therefrom.
Procedure for MM.1S cells: as §1, §2
Procedure for Mino cells: as §1, §2

For the compound `CC1(C)CCC(CN2CCN(Cc3ccc4c(c3)C(=O)N(C3CCC(=O)NC3=O)C4=O)CC2)=C(c2ccc(Cl)cc2)C1` (stereo not drawn) [GT-05364, 5-((4-((4′-chloro-5,5-dimethyl-3,4,5,6-tetrahydro-[1,1′-biphenyl]-2-yl)methyl)piperazin-1-yl)methyl)-2-(2,6-dioxopiperidin-3-yl)isoindoline-1,3-dione], the IC50 in the assay on CCRF-CEM cells and with MM.1S cells was 100 to 500 nM throughout. Moreover, the “residual substrate protein level, GSPT1” value at GSPT1 protein is given as “A (A represents a residual substrate protein level of <50%)”. Also, at IKZF3 protein, the “residual substrate protein level, IKZF3” value was “A (A represents a residual substrate protein level of <50%)”. Moreover, on IKZF1 protein, the “residual substrate protein level, IKZF1” value is “A (A represents a residual substrate protein level of <50%)”.
Turning to `CC1(C)CCC(C(=O)N2CCN(Cc3cc4c(cc3F)C(=O)N(C3CCC(=O)NC3=O)C4)CC2)=C(c2ccc(Cl)cc2)C1` (stereo not drawn) [GT-05526, 3-(5-((4-(4′-chloro-5,5-dimethyl-3,4,5,6-tetrahydro-[1,1′-biphenyl]-2-carbonyl)piperazin-1-yl)methyl)-6-fluoro-1-oxoisoindolin-2-yl)piperidine-2,6-dione], the values for the IC50 (in the assay on CCRF-CEM cells; in assay [1]) were 500 to 1000 nM and 690 nM, respectively. The “residual substrate protein level, GSPT1” value at GSPT1 protein is “A (A represents a residual substrate protein level of <50%)”. Further, at IKZF3 protein, the “residual substrate protein level, IKZF3” value is reported as “B (B represents a residual substrate protein level of >50%)”. Besides, at IKZF1 protein, the “residual substrate protein level, IKZF1” value is given as “B (B represents a residual substrate protein level of >50%)”.
As for `O=C1CCC(N2Cc3cc(CN4CC5CCC(C4)N5C(=O)c4ccccc4-c4ccc(Cl)cc4)ccc3C2=O)C(=O)N1` (stereo not drawn) [GT-05542, 3-(5-((8-(4′-chloro-[1,1′-biphenyl]-2-carbonyl)-3,8-diazabicyclo[3.2.1]octan-3-yl)methyl)-1-oxoisoindolin-2-yl)piperidine-2,6-dione], the IC50 in the assay on CCRF-CEM cells is 10 to 50 nM; in assay [1] it was 440 nM; with MM.1S cells it was 10 to 50 nM; with Mino cells it was less than 5 nM.
For `O=C1CCC(N2Cc3cc(CN4CCN(Cc5ccc(-c6cccs6)cc5)CC4)ccc3C2=O)C(=O)N1` (stereo not drawn) [GT-05640, 3-(1-oxo-5-((4-(4-(thiophen-2-yl)benzyl)piperazin-1-yl)methyl)isoindolin-2-yl)piperidine-2,6-dione], the IC50 in assay [1] is 390 nM; with MM.1S cells, 100 to 500 nM; with Mino cells it was 10 to 50 nM. Besides, at GSPT1 protein, the “residual substrate protein level, GSPT1” value is recorded as “B (B represents a residual substrate protein level of >50%)”. Besides, on GSPT1 protein (setting [2]), the “concentration at which significant degradation effects on GSPT1 protein are exhibited (FIG. 1)” value is less than 3 nM. Also, the “residual substrate protein level, IKZF3” value on IKZF3 protein is given as “A (A represents a residual substrate protein level of <50%)”. Besides, at IKZF3 protein (setting [2]), the “concentration at which significant degradation effects on IKZF3 protein are exhibited (FIG. 1)” value was less than 3 nM. Also, on IKZF1 protein, the “residual substrate protein level, IKZF1” value was “A (A represents a residual substrate protein level of <50%)”. Also, the “concentration at which significant degradation effects on IKZF1 protein are exhibited (FIG. 1)” value at IKZF1 protein (setting [2]) was less than 3 nM.
Turning to `O=C1CCC(N2Cc3cc(C(=O)N4CC5CN(Cc6ccccc6-c6ccc(Cl)cc6)CC5C4)ccc3C2=O)C(=O)N1` (stereo not drawn) [GT-05642, 3-(5-(5-((4′-chloro-[1,1′-biphenyl]-2-yl)methyl)octahydropyrrolo[3,4-c]pyrrole-2-carbonyl)-1-oxoisoindolin-2-yl)piperidine-2,6-dione], the IC50 was 50 to 100 nM in the assay on CCRF-CEM cells, 490 nM in assay [1] and 100 to 500 nM in the assay on MM.1S cells. The “residual substrate protein level, GSPT1” value at GSPT1 protein is “A (A represents a residual substrate protein level of <50%)”. The “residual substrate protein level, IKZF3” value at IKZF3 protein is on record as “B (B represents a residual substrate protein level of >50%)”. The “residual substrate protein level, IKZF1” value at IKZF1 protein was “B (B represents a residual substrate protein level of >50%)”.
In the case of `O=C1CCC(N2Cc3cc(C(=O)N4CCC(Nc5ccccc5-c5ccc(Cl)cc5)CC4)ccc3C2=O)C(=O)N1` (stereo not drawn) [GT-05646, 3-(5-(4-((4′-chloro-[1,1′-biphenyl]-2-yl)amino)piperidine-1-carbonyl)-1-oxoisoindolin-2-yl)piperidine-2,6-dione], the IC50 is 100 to 500 nM in the assay with CCRF-CEM cells, 1020 nM in assay [1] and 100 to 500 nM with MM.1S cells. Moreover, the “residual substrate protein level, GSPT1” value on GSPT1 protein is listed as “A (A represents a residual substrate protein level of <50%)”. Moreover, on IKZF3 protein, the “residual substrate protein level, IKZF3” value is on record as “B (B represents a residual substrate protein level of >50%)”. The “residual substrate protein level, IKZF1” value on IKZF1 protein is recorded as “B (B represents a residual substrate protein level of >50%)”.
As to `O=C1CCC(N2Cc3c(ccc(CN4CCN(C(=O)c5ccccc5-c5ccc(Cl)cc5)CC4)c3F)C2=O)C(=O)N1` (stereo not drawn) [GT-05649, 3-(5-((4-(4′-chloro-[1,1′-biphenyl]-2-carbonyl)piperazin-1-yl)methyl)-4-fluoro-1-oxoisoindolin-2-yl)piperidine-2,6-dione], the IC50 in assay [1] is 680 nM; in the assay on MM.1S cells, 100 to 500 nM; with Mino cells, 100 to 500 nM. Further, the “residual substrate protein level, GSPT1” value on GSPT1 protein is “B (B represents a residual substrate protein level of >50%)”. For the same compound, at IKZF3 protein, the “residual substrate protein level, IKZF3” value was “A (A represents a residual substrate protein level of <50%)”. The “residual substrate protein level, IKZF1” value at IKZF1 protein is “B (B represents a residual substrate protein level of >50%)”.
As to `Cn1nccc1-c1ccccc1CN1CCN(Cc2ccc3c(c2)CN(C2CCC(=O)NC2=O)C3=O)CC1` (stereo not drawn) [GT-05702, 3-(5-((4-(2-(1-methyl-1H-pyrazol-5-yl)benzyl)piperazin-1-yl)methyl)-1-oxoisoindolin-2-yl)piperidine-2,6-dione], the figures for the IC50 (in assay [1]; with MM.1S cells; with Mino cells) were 610 nM, 100 to 500 nM and 500 to 1000 nM, respectively. The “residual substrate protein level, GSPT1” value on GSPT1 protein is “A (A represents a residual substrate protein level of <50%)”. For the same compound, the “residual substrate protein level, IKZF3” value at IKZF3 protein is given as “A (A represents a residual substrate protein level of <50%)”. Moreover, the “residual substrate protein level, IKZF1” value on IKZF1 protein is listed as “A (A represents a residual substrate protein level of <50%)”.
Turning to `O=C1CCC(N2Cc3cc(CN4CCN(Cc5ccccc5-c5ccc(Cl)cc5)CC4C(F)(F)F)ccc3C2=O)C(=O)N1` (stereo not drawn) [GT-05711, 3-(5-((4-((4′-chloro-[1,1′-biphenyl]-2-yl)methyl)-2-(trifluoromethyl)piperazin-1-yl)methyl)-1-oxoisoindolin-2-yl)piperidine-2,6-dione], the figures for the IC50 (with CCRF-CEM cells; in assay [1]) were 100 to 500 nM and 490 nM, respectively.
On to `CC1(C)CCC(CN2CCN(Cc3ccc4c(c3)CN(C3CCC(=O)NC3=O)C4=O)CC2)=C(c2ccco2)C1` (stereo not drawn) [GT-05790, 3-(5-((4-((2-(furan-2-yl)-4,4-dimethylcyclohex-1-en-1-yl)methyl)piperazin-1-yl)methyl)-1-oxoisoindolin-2-yl)piperidine-2,6-dione], for which the IC50 in the assay on CCRF-CEM cells is 50 to 100 nM; in assay [1] it was 570 nM; with MM.1S cells it was 10 to 50 nM; in the assay on Mino cells, 10 to 50 nM.
`CC1(C)CCC(CN2CCN(Cc3ccc4c(c3)CN(C3CCC(=O)NC3=O)C4=O)CC2)=C(c2cnco2)C1` (stereo not drawn) [GT-05848, 3-(5-((4-((4,4-dimethyl-2-(oxazol-5-yl)cyclohex-1-en-1-yl)methyl)piperazin-1-yl)methyl)-1-oxoisoindolin-2-yl)piperidine-2,6-dione]: the IC50 in assay [1] was 710 nM; in the assay with MM.1S cells it was 50 to 100 nM; in the assay with Mino cells it was 50 to 100 nM. On GSPT1 protein, the “residual substrate protein level, GSPT1” value is “B (B represents a residual substrate protein level of >50%)”. Also, the “residual substrate protein level, IKZF3” value on IKZF3 protein is on record as “A (A represents a residual substrate protein level of <50%)”. The “residual substrate protein level, IKZF1” value at IKZF1 protein is given as “A (A represents a residual substrate protein level of <50%)”.
For `O=C1CCC(N2Cc3cc(CN4CCN(Cc5ccccc5-c5cnco5)CC4)ccc3C2=O)C(=O)N1` (stereo not drawn) [GT-05849, 3-(5-((4-(2-(oxazol-5-yl)benzyl)piperazin-1-yl)methyl)-1-oxoisoindolin-2-yl)piperidine-2,6-dione], the IC50 was 990 nM in assay [1], 100 to 500 nM with MM.1S cells and 100 to 500 nM in the assay on Mino cells. Also, the “residual substrate protein level, GSPT1” value on GSPT1 protein is given as “A (A represents a residual substrate protein level of <50%)”. Further, the “residual substrate protein level, IKZF3” value at IKZF3 protein was “A (A represents a residual substrate protein level of <50%)”. Besides, at IKZF1 protein, the “residual substrate protein level, IKZF1” value is given as “A (A represents a residual substrate protein level of <50%)”.
With `CC1(C)CCC(CN2CCN(Cc3cc4c(cc3F)C(=O)N(C3CCC(=O)NC3=O)C4)C(C(F)(F)F)C2)=C(c2ccc(Cl)cc2)C1` (stereo not drawn) [GT-06101, 3-(5-((4-((4′-chloro-5,5-dimethyl-3,4,5,6-tetrahydro-[1,1′-biphenyl]-2-yl)methyl)-2-(trifluoromethyl)piperazin-1-yl)methyl)-6-fluoro-1-oxoisoindolin-2-yl)piperidine-2,6-dione], in the assay with CCRF-CEM cells, the IC50 was 500 to 1000 nM.
